Each block holds one compound with its values, some of them ahead of it.
Key:
[1] = target: T1, Muscarinic acetylcholine receptor M1 (Homo sapiens, UniProt P11229)
T1 sequence (P11229 whole entry): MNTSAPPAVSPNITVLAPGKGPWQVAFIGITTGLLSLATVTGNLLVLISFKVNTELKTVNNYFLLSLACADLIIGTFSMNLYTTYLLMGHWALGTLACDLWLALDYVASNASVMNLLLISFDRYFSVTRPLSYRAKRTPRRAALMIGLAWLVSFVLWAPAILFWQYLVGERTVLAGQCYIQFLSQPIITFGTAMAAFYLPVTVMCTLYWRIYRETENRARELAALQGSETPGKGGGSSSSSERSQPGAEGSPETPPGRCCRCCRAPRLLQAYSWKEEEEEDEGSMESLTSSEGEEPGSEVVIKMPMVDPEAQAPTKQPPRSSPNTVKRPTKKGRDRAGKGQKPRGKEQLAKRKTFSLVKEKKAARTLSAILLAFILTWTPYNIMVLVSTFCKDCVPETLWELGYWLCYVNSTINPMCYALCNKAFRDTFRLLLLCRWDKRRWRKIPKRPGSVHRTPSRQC
Description: Binding affinity towards muscarinic M1 receptor

[2] = target: T2, Endothelin receptor type B (Homo sapiens, UniProt P24530)
T2 sequence (P24530 whole entry): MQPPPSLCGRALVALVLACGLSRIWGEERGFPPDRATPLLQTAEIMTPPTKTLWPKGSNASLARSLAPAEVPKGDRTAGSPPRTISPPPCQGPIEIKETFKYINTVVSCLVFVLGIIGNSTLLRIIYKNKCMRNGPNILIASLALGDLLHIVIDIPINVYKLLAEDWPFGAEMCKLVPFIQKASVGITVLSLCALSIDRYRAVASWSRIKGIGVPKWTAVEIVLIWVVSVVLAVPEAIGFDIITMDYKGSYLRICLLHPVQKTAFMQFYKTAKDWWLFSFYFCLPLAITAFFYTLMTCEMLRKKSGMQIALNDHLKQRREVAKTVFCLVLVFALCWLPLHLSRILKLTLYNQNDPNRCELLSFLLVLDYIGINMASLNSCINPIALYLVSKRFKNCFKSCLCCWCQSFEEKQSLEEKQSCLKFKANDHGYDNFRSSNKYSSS

[3] = target: T3, Endothelin-1 receptor (Homo sapiens, UniProt P25101)
T3 sequence (P25101 whole entry): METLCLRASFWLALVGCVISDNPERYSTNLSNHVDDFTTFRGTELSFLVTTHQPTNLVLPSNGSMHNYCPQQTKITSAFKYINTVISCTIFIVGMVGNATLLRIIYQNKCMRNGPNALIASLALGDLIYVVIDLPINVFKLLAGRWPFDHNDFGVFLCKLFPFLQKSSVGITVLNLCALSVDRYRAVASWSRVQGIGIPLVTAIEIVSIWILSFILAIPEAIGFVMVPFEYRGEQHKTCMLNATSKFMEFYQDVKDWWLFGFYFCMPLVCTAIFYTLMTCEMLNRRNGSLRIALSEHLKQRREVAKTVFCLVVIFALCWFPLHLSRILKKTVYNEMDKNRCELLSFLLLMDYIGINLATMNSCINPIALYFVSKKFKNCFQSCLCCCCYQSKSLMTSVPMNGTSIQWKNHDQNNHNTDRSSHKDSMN
Description: Binding affinity against human Endothelin A receptor

[4] = target: T4, Acetylcholinesterase (Electrophorus electricus, UniProt O42275); assay type: functional
T4 sequence (O42275 whole entry): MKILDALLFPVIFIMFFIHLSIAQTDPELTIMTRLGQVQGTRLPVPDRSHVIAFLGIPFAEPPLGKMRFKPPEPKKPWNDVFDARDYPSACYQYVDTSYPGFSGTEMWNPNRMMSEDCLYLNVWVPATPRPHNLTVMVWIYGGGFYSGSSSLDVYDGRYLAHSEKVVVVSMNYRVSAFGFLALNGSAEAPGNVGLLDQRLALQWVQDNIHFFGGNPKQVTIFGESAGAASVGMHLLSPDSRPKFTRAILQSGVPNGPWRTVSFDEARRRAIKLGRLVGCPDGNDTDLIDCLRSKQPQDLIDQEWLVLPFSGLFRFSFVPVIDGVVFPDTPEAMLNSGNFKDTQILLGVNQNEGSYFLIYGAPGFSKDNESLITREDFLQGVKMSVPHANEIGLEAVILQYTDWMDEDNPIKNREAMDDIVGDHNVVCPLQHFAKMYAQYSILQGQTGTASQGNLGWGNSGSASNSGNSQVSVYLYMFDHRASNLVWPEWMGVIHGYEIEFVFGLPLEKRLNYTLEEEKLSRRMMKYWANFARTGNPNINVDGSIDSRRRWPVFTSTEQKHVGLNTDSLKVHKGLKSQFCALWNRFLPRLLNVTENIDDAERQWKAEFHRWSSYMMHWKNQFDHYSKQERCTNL
Description: (§1) Inhibitory concentration towards acetylcholinesterase in electric eel

[5] = target: T3, Endothelin-1 receptor; remark: listed apart in the source
Description: (§2) Inhibitory concentration against Endothelin A receptor

[6] = in vivo; conditions: rat
[7] = species on record: Rattus norvegicus; assay type: functional
Description: Dose required for oral activity in rats

[8] = target: D(4) dopamine receptor (Homo sapiens, UniProt P21917)
Sequence of D(4) dopamine receptor (P21917 whole entry, looked up): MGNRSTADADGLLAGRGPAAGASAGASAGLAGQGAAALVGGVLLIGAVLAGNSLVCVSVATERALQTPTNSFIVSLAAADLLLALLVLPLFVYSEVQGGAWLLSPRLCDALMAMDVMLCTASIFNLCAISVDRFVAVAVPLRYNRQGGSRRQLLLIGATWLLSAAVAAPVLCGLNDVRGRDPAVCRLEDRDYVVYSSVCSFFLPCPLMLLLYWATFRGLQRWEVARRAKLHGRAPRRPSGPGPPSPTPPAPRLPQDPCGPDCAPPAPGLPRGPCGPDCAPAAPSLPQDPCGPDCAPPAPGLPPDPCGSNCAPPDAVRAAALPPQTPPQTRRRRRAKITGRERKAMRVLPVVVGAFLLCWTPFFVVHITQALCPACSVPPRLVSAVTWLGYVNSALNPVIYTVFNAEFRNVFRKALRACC
Description: Binding affinity against human Dopamine receptor D4 versus hD2, hD3 receptor

[9] = species on record: Homo sapiens; test: cells; assay type: functional, organism-based
Description: Antiviral activity against human respiratory syncytial virus (RSV)

[10] = target: T5, Potassium voltage-gated channel subfamily KQT member 1 (Cavia porcellus, UniProt O70344); assay type: cell-based, Oocyte
T5 sequence (O70344 whole entry): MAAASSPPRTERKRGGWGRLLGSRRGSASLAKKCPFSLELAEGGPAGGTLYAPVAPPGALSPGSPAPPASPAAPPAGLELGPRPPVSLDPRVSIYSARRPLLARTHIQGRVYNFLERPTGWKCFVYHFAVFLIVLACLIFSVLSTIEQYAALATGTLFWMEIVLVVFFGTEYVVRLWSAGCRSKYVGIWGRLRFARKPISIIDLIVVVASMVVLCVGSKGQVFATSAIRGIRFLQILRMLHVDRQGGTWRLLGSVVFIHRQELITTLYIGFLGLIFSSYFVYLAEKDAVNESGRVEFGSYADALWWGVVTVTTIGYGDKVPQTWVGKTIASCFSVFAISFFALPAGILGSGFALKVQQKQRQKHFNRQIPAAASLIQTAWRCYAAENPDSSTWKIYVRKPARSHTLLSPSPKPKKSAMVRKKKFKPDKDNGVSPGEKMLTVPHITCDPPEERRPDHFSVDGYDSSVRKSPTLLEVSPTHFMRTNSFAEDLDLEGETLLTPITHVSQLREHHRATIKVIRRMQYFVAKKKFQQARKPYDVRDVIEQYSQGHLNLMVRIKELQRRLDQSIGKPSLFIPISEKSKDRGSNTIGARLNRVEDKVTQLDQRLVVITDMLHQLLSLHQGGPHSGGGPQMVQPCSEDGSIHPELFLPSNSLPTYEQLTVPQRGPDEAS
Description: (§3) Inhibition of guinea pig Iks potassium channel expressed in Xenopus oocytes

[11] = target: T5, Potassium voltage-gated channel subfamily KQT member 1; assay type: functional, cell-based, Oocyte
Description: as §3

[12] = target: T4, Acetylcholinesterase
Description: as §1

[13] = target: D(3) dopamine receptor (Homo sapiens, UniProt P35462)
Sequence of D(3) dopamine receptor (P35462 whole entry): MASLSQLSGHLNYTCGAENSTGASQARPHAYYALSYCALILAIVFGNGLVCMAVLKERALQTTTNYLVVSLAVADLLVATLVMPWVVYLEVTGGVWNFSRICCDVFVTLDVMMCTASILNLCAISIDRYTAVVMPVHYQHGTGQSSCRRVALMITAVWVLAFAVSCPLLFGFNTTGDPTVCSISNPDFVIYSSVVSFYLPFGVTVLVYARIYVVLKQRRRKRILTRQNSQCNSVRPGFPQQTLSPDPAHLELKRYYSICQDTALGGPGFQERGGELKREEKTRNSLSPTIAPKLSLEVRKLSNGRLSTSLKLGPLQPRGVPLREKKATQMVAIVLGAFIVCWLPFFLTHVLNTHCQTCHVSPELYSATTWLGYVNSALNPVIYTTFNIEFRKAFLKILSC
Description: Binding affinity against Dopamine receptor D3

[14] = target: Muscarinic acetylcholine receptor; assay type: protein assay
Description: (§4) Binding affinity towards human muscarinic receptor

[15] = target: T6, Adrenergic receptor alpha-1 (Homo sapiens, UniProt P35348+P25100+P35368)
T6 sequence (P35348 whole entry): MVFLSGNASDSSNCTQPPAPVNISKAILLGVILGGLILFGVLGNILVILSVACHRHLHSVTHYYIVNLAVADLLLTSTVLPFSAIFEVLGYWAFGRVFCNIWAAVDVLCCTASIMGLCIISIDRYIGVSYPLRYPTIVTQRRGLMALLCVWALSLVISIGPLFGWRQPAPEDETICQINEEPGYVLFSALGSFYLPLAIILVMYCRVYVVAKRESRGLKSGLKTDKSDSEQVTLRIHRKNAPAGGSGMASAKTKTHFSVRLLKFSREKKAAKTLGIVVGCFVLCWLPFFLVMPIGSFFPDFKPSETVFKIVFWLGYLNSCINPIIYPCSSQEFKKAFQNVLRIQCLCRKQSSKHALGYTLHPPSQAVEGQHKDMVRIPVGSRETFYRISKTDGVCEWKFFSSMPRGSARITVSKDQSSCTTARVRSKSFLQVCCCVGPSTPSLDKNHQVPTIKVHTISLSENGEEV
T6 sequence (P25100 whole entry): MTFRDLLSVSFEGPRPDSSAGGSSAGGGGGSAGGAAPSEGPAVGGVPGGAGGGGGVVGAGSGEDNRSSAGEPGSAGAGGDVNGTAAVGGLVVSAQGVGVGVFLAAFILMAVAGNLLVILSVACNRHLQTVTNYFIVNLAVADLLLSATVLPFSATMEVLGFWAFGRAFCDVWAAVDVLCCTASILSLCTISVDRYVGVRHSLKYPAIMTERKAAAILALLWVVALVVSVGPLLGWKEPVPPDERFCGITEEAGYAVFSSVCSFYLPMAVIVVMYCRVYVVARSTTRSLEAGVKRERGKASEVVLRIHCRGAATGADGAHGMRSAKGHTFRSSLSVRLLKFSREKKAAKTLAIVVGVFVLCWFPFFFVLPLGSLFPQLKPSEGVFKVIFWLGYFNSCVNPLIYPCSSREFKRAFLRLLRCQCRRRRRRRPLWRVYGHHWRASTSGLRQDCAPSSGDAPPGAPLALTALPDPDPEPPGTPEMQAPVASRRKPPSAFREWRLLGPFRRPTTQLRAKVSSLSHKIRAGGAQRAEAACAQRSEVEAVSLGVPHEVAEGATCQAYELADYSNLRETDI
T6 sequence (P35368 whole entry): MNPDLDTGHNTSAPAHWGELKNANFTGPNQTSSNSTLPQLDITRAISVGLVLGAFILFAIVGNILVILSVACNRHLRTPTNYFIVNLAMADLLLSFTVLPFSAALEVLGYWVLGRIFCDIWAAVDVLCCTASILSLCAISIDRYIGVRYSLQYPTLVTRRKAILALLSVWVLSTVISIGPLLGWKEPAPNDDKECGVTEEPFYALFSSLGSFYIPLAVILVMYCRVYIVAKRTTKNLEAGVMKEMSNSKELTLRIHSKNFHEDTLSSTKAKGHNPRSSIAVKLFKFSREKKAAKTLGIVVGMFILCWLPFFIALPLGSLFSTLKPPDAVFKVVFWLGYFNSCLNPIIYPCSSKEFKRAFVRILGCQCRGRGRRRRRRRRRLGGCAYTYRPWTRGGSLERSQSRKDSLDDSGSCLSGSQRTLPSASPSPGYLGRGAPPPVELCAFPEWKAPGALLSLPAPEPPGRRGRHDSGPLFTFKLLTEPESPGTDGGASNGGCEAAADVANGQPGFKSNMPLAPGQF
Description: Binding affinity towards human alpha-1 adrenergic receptor

[16] = target: T3, Endothelin-1 receptor; remark: listed apart in the source
Description: as §2

[17] = target: T7, Muscarinic acetylcholine receptor M4 (Homo sapiens, UniProt P08173)
T7 sequence (P08173 whole entry): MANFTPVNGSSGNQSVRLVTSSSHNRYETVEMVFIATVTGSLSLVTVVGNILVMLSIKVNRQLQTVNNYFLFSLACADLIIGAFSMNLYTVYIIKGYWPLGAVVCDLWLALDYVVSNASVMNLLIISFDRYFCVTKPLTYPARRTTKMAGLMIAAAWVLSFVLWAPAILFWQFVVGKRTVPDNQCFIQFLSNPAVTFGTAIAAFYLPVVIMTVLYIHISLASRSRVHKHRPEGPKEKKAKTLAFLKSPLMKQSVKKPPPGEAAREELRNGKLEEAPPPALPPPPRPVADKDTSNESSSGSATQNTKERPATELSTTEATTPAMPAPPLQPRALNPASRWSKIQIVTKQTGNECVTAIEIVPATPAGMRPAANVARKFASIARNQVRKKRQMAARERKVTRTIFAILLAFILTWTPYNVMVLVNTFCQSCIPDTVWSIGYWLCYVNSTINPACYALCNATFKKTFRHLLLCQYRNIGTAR
Description: as §4

Compound: Cc1cc(NCCN2CCOCC2)nnc1-c1ccccc1
- Ki [1]: 550 nM

- Ki [2]: 4700 nM
- Ki [3]: 160 nM
Compound: COc1cc(OC)nc(CC(C(=O)O)C(C)(Oc2ccc(SC)cc2)c2ccccc2)n1 (configuration not stated)

Compound: c1ccc(-c2ccc(NCCCCN3CCc4ccccc4C3)nn2)cc1
- IC50 [4]: 1900 nM

Compound: Cc1cc(NCCN2C3CCCC2CC3)nnc1-c1ccccc1
- Ki [1]: 50 nM

- Ki [5]: 0.01 nM
- bioavailability [6]: 100%
Compound: Cc1noc(NS(=O)(=O)c2ccccc2-c2ccc(-c3ncco3)cc2CNC(=O)CC(C)(C)C)c1C
- Dose [7]: 3 µM/kg

Compound: Cc1cc(NCCN2C3CCCC2CC3)nnc1-c1ccccc1O
- Ki [1]: 3 nM

Compound: c1ccc(-c2ccc(NCCN3CCCCC3)nn2)cc1
- IC50 [4]: 13000 nM

- Ki [8]: 5.62 nM
Compound: COc1cccc(CN2CC[C@H](NC(=O)c3cc(Cl)c(NC(=O)C4CC4)cc3OC)C2)c1

- Ki [2]: 3000 nM
- Ki [3]: 250 nM
Compound: COc1cc(OC)nc(CC(C(=O)O)C(C)(Oc2ccc(C(C)C)cc2)c2ccccc2)n1 (configuration not stated)

- IC50 [9]: 50 nM
Compound: NC(=O)CCN(CCC(N)=O)S(=O)(=O)c1cccc(Nc2nc(Nc3cccc(S(=O)(=O)N(CCC(N)=O)CCC(N)=O)c3)nc(Nc3ccc(-c4ccc(Nc5nc(Nc6cccc(S(=O)(=O)N(CCC(N)=O)CCC(N)=O)c6)nc(Nc6cccc(S(=O)(=O)N(CCC(N)=O)CCC(N)=O)c6)n5)cc4S(=O)(=O)O)c(S(=O)(=O)O)c3)n2)c1

- IC50 [9]: 150 nM
Compound: NC(=O)CCN(CCC(N)=O)S(=O)(=O)c1cccc(Nc2nc(Nc3cccc(S(=O)(=O)N(CCC(N)=O)CCC(N)=O)c3)nc(Nc3ccc(/C=C/c4ccc(Nc5nc(Nc6cccc(S(=O)(=O)N(CCC(N)=O)CCC(N)=O)c6)nc(Nc6cccc(S(=O)(=O)N(CCC(N)=O)CCC(N)=O)c6)n5)cc4S(=O)(=O)O)c(S(=O)(=O)O)c3)n2)c1

- IC50 [10]: 5000 nM
Compound: CCS(=O)(=O)N(C)C1c2cc(C#N)ccc2OC(C)(C)[C@@H]1O (single isomer, unassigned)

- IC50 [11]: 6200 nM
- IC50 [10]: 39000 nM
Compound: CCS(=O)(=O)N(C)C1c2cc(C#N)ccc2OC(C)(C)[C@H]1O (single isomer, unassigned)

Compound: Cc1cc(-c2ccccc2)nnc1NCCN1CCOCC1 [MINAPRINE]
- Ki [1]: 17000 nM
- IC50 [12]: 600000 nM

- Ki [13]: 0.11 nM
Compound: CCCCN1CCCC1CNC(=O)c1cc(C#N)c2ccccc2c1OC (configuration not stated) [NAFADOTRIDE]

Compound: O=C1NCCN1CCN1CCC(c2cn(-c3ccc(F)cc3)c3ccc(Cl)cc23)CC1 [SERTINDOLE]
- Ki [14]: > 5000 nM
- Ki [15]: 1.8 nM

- IC50 [16]: 69000 nM
Compound: Nc1ccc(S(=O)(=O)Nc2nccs2)cc1 [SULFATHIAZOLE]

- Ki [14]: > 5000 nM
- Ki [15]: 12 nM
Compound: O=C1Cc2cc(CCN3CCN(c4nsc5ccccc45)CC3)c(Cl)cc2N1 [ZIPRASIDONE]

- Ki [17]: 550 nM
Compound: CN(C)CCOC1=Cc2ccccc2Sc2ccc(Cl)cc21 [ZOTEPINE]

From ChEMBL document CHEMBL1149193, “Selective optimization of side activities: another way for drug discovery” (J Med Chem, 2004)
